Drawing on paper PMC6208323 (Cell chemical biology, 2018), this text covers Kd and stoichiometry N for six compounds.

In one assay the target is TnmS1 (Streptomyces sp. CB03234, UniProt A0A125SA24). As to the kind of experiment: fluorescence quenching. The format is binding.
For the next assay, the target named is (UniProt S2XVS8). As to the kind of experiment: fluorescence quenching. The class given is binding, Streptomyces sp. HGB0020.
The target in a further assay is TnmS2 (Streptomyces sp. CB03234, UniProt A0A125SA26). As to the kind of experiment: fluorescence quenching. The format is binding.
A further assay addresses TnmS3 (Streptomyces sp. CB03234, UniProt A0A125SA29). As to the kind of experiment: fluorescence quenching. The class given is binding.
The target in another assay is CBFG_04671 (Clostridium pacaense, UniProt A0ABV1D2N3). As to the kind of experiment: fluorescence quenching. The class given is binding.
The target of assay [1] is TnmS1 (Streptomyces sp. CB03234). As to the kind of experiment: SEC. In general terms: SEC sorts molecules by how far they enter the pores of the column.
Assay [2] addresses TnmS2 (Streptomyces sp. CB03234). As to the kind of experiment: SEC.
In assay [3] the target is TnmS3 (Streptomyces sp. CB03234). As to the kind of experiment: SEC.
The mark [4] stands for this setting: 20 mM MOPS pH 7.0, 28 °C, 2 μM protein, ligand in DMSO.

Like-named read-outs stand apart in the source and are kept apart here.

(UniProt S2XVS8), sequence (S2XVS8 1-128): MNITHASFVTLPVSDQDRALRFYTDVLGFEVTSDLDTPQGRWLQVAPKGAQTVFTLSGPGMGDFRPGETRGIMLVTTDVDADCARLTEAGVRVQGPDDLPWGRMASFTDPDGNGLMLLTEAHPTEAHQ

For orientation: Kd means the equilibrium constant for the complex coming apart. Lower therefore signals higher affinity. `COc1ccc2c(c1O)C(=O)c1c3c(cc(O)c1C2=O)[C@@]12O[C@@]1([C@@H](C)O)[C@H](C#C/C=C\C#C[C@H]2O)N3` [TNM A]: the Kd was determined as 163 ± 17 nM at TnmS1; 164 ± 23 nM at (UniProt S2XVS8); 246 ± 36 nM on TnmS2; 108 ± 13 nM at TnmS3; 855 ± 66 nM at CBFG_04671.
On to `Cc1cc2nc3c(=O)[nH]c(=O)nc-3n(C[C@H](O)[C@H](O)[C@H](O)CO)c2cc1C` [riboflavin], for which the values for the dissociation constant Kd at TnmS1, on TnmS2 and at TnmS3 were 84100 nM, 59500 nM and 1100 nM, respectively.
With TNM C, the dissociation constant (Kd) was determined as 350 ± 41 nM at TnmS1 (setting [4]), 361 ± 65 nM at TnmS2 (setting [4]) and 215 ± 27 nM on TnmS3 (setting [4]).
What is called stoichiometry N is a count of units in the complex or per binding partner. Take TnmS1 (natural protein): the stoichiometry N in assay [1] worked out at 2.
For the compound TnmS2 (natural protein), in assay [2], the stoichiometry N turned out to be 2.
Regarding TnmS3 (natural protein), the stoichiometry N in assay [3] turned out to be 2.
